Experimental data as given in patent publication US20260272954A1, “ANALGESIC COMPOUNDS COMPRISING CHARGED PARTICLES AND METHOD OF MANUFACTURE THEREOF” (UNIVERSITY OF CONNECTICUT, priority 2023, published 2026).

Assay: Release of QX-314 into water through dialysis membrane (HPLC)
Format: physicochemical
Settings: dialysis membrane in 20 ml ultrapure water; FIG. 6
Protocol: High Performance Liquid Chromatography (HPLC) was used to assess the amount of QX-314 remaining in the supernatant after complexing with the NPs. The conditions for HPLC were as follows. The mobile phase consisted of 50 mM phosphate buffer, with 0.16% triethylamine, pH 4.0 buffer:methanol:acetonitrile=60:30:10 vol/vol/vol. The chromatographic conditions were: 30 μL of solution injected, 40° C. constant temperature, flow rate of 0.3 ml/min, and wavelength detection of 210 nm. The column used was a Supelco C18 Column 25 cm×4.6 mm.
The DPPC:PA (mass ratio=1:1) nanoparticles were complexed with QX-314 by incubating 0.5 mg of QX-314 with 1 mL of 0.25% (w/v) lipid solution in a 37° C. room on a gentle shaker. After 1 hour, the formulation was transferred to a dialysis membrane and incubated in 20 ml of ultrapure water. The amount of QX-314 released into the water was measured as a function of time using HPLC as described above. Aqueous solution of QX-314 in dialysis membrane was used as the control. A representative image of positively charged molecule (QX-314) complexed with negatively charged lipid (L-α-phosphatidic acid) is shown below.

With `CC[N+](CC)(CC)CC(=O)Nc1c(C)cccc1C` [QX-314 solution, QX-314] the “burst release of QX-314 (time)” value was ≤ 3 h.
